Series [1] relates to TNFα/IL-17A-stimulated HaCaT cells. Description: Anti-inflammatory effect of combined test compounds (Abn-CBD/CBD and PPAR agonists) in TNFα/IL-17A-stimulated HaCaT cells. It counts as cell-based, human. How it is done: HaCaT cells were maintained as described above in DMEM high glucose (4.5 g/L) medium supplemented with 10% FBS and 1% (v/v) penicillin/streptomycin solution (Invitrogen, Thermo Fisher) and kept in an incubator at 37° C. with 5% CO2. For experiments the cells were seeded at 5×10^4 cells/well in 0.5 mL of medium to a 24-well culture plate (Nunc, Thermo Fisher) and incubated overnight. The old medium in the culture plates was discarded and the corresponding stimulant, TNFα/IL-17A (R&D Systems) at 2 ng/mL each, with or without test chemicals in 0.5 mL of fresh medium was added to each cell well in the plate. There were duplicate wells for each treatment. The plate was incubated for another 24 h and the supernatant was collected for cytokine analysis, namely IL-6 and IL-8, using ELISA kits (Thermo Fisher).

For series [2], the system named is IMQ-induced psoriasis in BALB/c mice. Briefly: IMQ-induced psoriasis model in BALB/c mice, topical creams, PASI score. The class given is in vivo. Particulars: for tolerability in mice / visual damage on the skin: topical, seven-day consecutive treatment; for tolerability in mice: even at 10% creams; for visual damage on the skin: up to 10% creams. The method, then:
The animal experiment is conducted in accordance with the Guidelines for the Institutional Animal Care and Use Committee. Both male and female BALB/c mice from Rodenta Bioserve, India, at 7-8 weeks of age and 20-25 gram of body weight are housed in a laboratory environment with constant temperature (24.0±1.0° C.) and relative humidity (45.0-55.0%) on a 12 h light/dark cycles. These animals are provided free access to unlimited amounts of food and water during the entire experiment. The animals are divided into 12 groups of 8 mice each and shaved on the back on day 0 for an area of 2×2 cm . Human-like psoriasis in mice is induced by topical application of 5% Imiquimod (IMQ) procured from AK Scientific, USA, and formulated in the base cream at desired percentages in-house, in shaved area and right ear (0.5×0.5 cm). […] Vehicle, clobetasol propionate (CP, Sigma. 0.05% w/w; positive control), test creams, and CBD (Ilesol Pharmaceuticals), respectively, is applied topically on both the shaved back (80 mg cream) and the right ear (20 mg cream) of mice, once daily from day 10 to day 16. The study ends at day 17. At stated time points the severity of psoriasis is evaluated using the PASI score (Psoriasis Area Severity Index: sum of erythema, scaling and thickening, scored independently from 0 to 4 for each mouse; max PASI score=12). Tissue and blood samples are collected for histopathology, biochemistry and immunoassay from each animal at various points.

The target of a further series is T1, human PPARδ/β (NR1C2) (Homo sapiens, UniProt Q03181).
T1 sequence (Q03181 1-441): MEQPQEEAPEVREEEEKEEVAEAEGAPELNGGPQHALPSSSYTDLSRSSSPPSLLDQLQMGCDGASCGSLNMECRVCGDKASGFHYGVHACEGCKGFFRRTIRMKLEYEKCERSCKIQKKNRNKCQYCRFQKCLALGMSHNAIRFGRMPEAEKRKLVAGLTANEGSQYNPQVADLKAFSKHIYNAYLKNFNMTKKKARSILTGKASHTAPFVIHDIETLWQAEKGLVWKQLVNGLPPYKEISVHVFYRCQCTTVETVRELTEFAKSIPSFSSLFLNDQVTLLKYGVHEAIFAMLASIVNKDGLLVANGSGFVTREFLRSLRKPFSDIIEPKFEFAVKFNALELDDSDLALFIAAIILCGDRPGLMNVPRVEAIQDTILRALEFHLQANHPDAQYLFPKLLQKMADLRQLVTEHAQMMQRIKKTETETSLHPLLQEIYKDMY
Briefly: Cell-based human PPARδ/β transactivation (nuclear receptor reporter) assay. The conditions noted are these: at tested concentrations. How it is done:
(§1) The assay was performed using cell-based human PPAR nuclear receptor reporter assay kits (NR1C1 for PPARα; NR1C2 for PPARδ/β, and NR1C3 for PPARγ, Indigo Biosciences) by following the manufacturer's instruction. In brief, PPAR reporter cells were added to CRM medium (Indigo Biosciences), seeded into wells of a 96-well culture plate and incubated for 5 hours in a cell culture incubator at 37° C. with 5% CO2. The medium was then removed, and the cells were treated with test compounds at different concentrations in CSM medium (Indigo Biosciences) for 24 h inside the incubator. […] DMSO (Sigma) at 0.1% (v/v) was used as negative baseline control (C). Each treatment was tested in duplicate wells. At the end point of the experiments, the treatment medium was discarded and Luciferase Detection Reagent (Indigo Biosciences) was added. Following a 10-minute rest period, the intensity of light emission (in units of “Relative Light Units; RLU”) from each assay well was quantified using a plate-reading luminometer (Synergy H1 plate reader, BioTek). In addition, live cell multiplex assay (Indigo Biosciences) was combined with the activation assays to detect potential cytotoxic effect, if any, of the test chemicals to normalize the signals as per manufacturer's instruction.

The target in a further series is T2, human PPARα (NR1C1) (Homo sapiens, UniProt Q07869).
T2 sequence (Q07869 1-468): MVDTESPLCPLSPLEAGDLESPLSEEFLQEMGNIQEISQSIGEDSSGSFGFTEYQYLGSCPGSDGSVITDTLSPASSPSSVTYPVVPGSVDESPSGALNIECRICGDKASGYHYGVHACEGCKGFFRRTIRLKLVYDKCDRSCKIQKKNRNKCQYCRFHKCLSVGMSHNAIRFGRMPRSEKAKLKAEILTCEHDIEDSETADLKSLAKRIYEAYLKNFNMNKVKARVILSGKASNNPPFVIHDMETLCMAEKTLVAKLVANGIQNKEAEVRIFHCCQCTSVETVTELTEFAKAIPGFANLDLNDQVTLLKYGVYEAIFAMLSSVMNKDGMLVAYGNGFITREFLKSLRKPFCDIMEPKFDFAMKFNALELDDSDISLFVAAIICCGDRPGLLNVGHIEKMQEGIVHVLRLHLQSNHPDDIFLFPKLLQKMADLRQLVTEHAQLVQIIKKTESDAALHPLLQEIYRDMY
Description: Cell-based human PPARα transactivation (nuclear receptor reporter) assay. Particulars: luciferase reporter cells, 24 h treatment, FIG. 1. How it is done:
as §1
(In general: In a reporter assay the amount or activity of a reporter protein is the signal.)

The target in a further series is T3, human PPARγ (NR1C3) (Homo sapiens, UniProt P37231).
T3 sequence (P37231 1-505): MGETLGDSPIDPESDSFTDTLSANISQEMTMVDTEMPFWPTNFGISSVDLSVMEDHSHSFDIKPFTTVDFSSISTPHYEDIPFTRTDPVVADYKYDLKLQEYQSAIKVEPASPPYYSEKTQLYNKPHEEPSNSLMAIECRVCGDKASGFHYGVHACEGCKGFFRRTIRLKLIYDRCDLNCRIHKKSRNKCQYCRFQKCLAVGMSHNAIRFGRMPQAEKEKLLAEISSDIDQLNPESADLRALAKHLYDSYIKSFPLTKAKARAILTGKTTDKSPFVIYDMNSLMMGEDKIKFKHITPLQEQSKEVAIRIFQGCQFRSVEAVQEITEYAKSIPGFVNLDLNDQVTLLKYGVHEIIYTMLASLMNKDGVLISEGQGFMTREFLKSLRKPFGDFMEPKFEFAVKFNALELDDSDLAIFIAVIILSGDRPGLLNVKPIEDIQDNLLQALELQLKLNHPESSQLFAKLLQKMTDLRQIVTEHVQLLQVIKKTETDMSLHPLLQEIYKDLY
Briefly: Cell-based human PPARγ transactivation (nuclear receptor reporter) assay. The conditions noted are these: FIG. 3. The method, then: as §1

For series [3], the system named is IMQ-stimulated HaCaT cells. Description: Anti-inflammatory effect, IMQ-stimulated HaCaT cell model (IL-6, IL-8 ELISA). Particulars: IMQ 50 μM, 24 h, vs control. The class given is cell-based, human. How it is done:
(§2) Three in vitro models based on HaCaT cell culture were tested. HaCaT cells were maintained as described above in DMEM high glucose (4.5g/L) medium supplemented with 10% FBS and 1% (v/v) penicillin/streptomycin solution (Invitrogen, Thermo Fisher) and kept in an incubator at 37° C. with 5% CO2. For experiments, the cells were seeded at 5×10^4 cells/well in 1 mL of medium to a 24-well culture plate (Nunc, Thermo Fisher) and incubated overnight.
(§3) (1) For the imiquimod (IMQ)-stimulated HaCaT model, IMQ (Alfa Aesar) at 50 μM final concentration was used in the experiments; (2) for TNFα/IL-17A-stimulated-HaCaT model, 2 ng/mL of each cytokine (R&D Systems) was used; and (3) for the lipopolysaccharide (LPS, Sigma) simulated HaCaT cell model, 20 μg/mL LPS was used. For drug chemical treatment the old medium in the culture plates described above was discarded and the corresponding stimulant (IMQ, TNFα/IL-17A, or LPS) with or without test chemicals in 0.5 mL fresh medium was added to each cell well. There were duplicate wells for each treatment. The plate was incubated for another 24 h and the supernatant was collected for cytokine analysis, namely IL-6 and IL-8, using the corresponding ELISA kits (Thermo Fisher).
On the technique in general: ELISA stands for enzyme-linked immunosorbent assay.

Series [4] deals with LPS-stimulated HaCaT cells. Briefly: Anti-inflammatory effect, LPS-stimulated HaCaT cell model (IL-6, IL-8 ELISA). The class given is cell-based, human. The conditions noted are these: LPS 20 μg/mL, 24 h. How it is done:
as §2
as §3, with “Fisher). The experiments were repeated independently to confirm the observation.” for “Fisher).”

Where [5] appears, read: initial studies, range 1 to 30 μM, HaCaT model.
[6] abbreviates: creams at 1% and 5%, once daily day 10 to day 16, FIG. 11.

Take `C=C(C)[C@@H]1CCC(C)=C[C@H]1c1c(O)cc(CCCCC)cc1O` [CBD, cannabidiol, reference compound]: the HaCaT growth result in series [1] (at higher concentrations, e.g. 30 μM) is listed as “inhibit HaCaT growth”. Also, in series [1] (setting [5]), the “production of IL-6” value was “reduced” and the “production of IL-8” value is “reduced”. Also, in series [2], the tolerability in mice entry was “well tolerated” and the “visual damage on the skin” value is “No visual damage”.

Take `CSc1ccc(C(=O)/C=C/c2cc(C)c(OC(C)(C)C(=O)O)c(C)c2)cc1` [elafibranor]: the PPARδ/β transactivation activity result at human PPARδ/β (NR1C2) is reported as “showed activities”.

Turning to `CCO[C@@H](Cc1ccc(OCCn2c(C)ccc2-c2ccc(SC)cc2)cc1)C(=O)O` [saroglitazar], the PPARδ/β transactivation activity result on human PPARδ/β (NR1C2) was “showed activities”.

Take `CCCc1cc(C(=O)c2ccc(F)cc2)ccc1OCCCOc1ccc2c(cnn2CC(=O)OC)c1` [MP-152, methyl 2-(5-(3-(4-(4-fluorobenzoyl)-2-propylphenoxy)nropoxy)-1H-indazol-1-yl)acetate]: on human PPARα (NR1C1), the “PPARα transactivation: concentration at which (or starting at which) active” value was found to be 1 µM. Moreover, on human PPARγ (NR1C3), the “PPARγ transactivation: concentration at which (or starting at which) active” value is listed as 1,000 nM. In series [3] (compound at 2.5 μM), the “production of IL-6” value is reported as “significantly inhibited”. Moreover, the “production of IL-6” value in series [3] (compound at 25 μM) is “significantly inhibited”. For the same compound, in series [4] (25 μM), the “reduction of IL-8 production compared with rosiglitazone and fenofibrate” value is “more active”. For the same compound, the “production of IL-6” value in series [4] (compound at 25 uM) is on record as “reduced”. In series [2] (setting [6]), the “reducing the PASI score compared with CP” value was “more effective than CP” and the “reducing the PASI score, rank among the treatment groups” value was “most active”. In series [2], the tolerability in mice entry is listed as “well tolerated” and the “visual damage on the skin” value was “No visual damage”.

For the origin of these results see patent US20220378744A1, “COMPOUNDS FOR TREATING PROLIFERATOR-ACTIVATED RECEPTORS (PPAR) MEDIATED DISEASES OR CONDITIONS” (MEDIPURE PHARMACEUTICALS INC., priority 2021, published 2022).
